Values quoted from earlier work in publication PMC12291913 (Antibiotics, 2025).
≈ marks a conversion by molar mass, not a printed value.

Experiments:
Settings in all cases: drug alone, previous study ref 17; cited from earlier work
[1] = test system: M. avium clinical isolate Koav 25 (WT)
[2] = test system: M. avium clinical isolate Koav 2 (WT)
[3] = test system: M. avium clinical isolate Koav 1 (WT)
[4] = test system: M. avium clinical isolate Koav 15 (WT)
[5] = test system: M. avium clinical isolate Koav 13 (GyrA Asp95Gly)
[6] = test system: M. avium clinical isolate Koav 20 (WT)
[7] = test system: M. avium clinical isolate Koav 11 (GyrA Asp95Tyr)
[8] = test system: M. avium clinical isolate Koav 3 (GyrA Asp95Gly)
[9] = test system: M. avium clinical isolate Koav 19 (WT)
[10] = test system: M. avium clinical isolate Cl-A-2 (GyrA Asp95Tyr)
[11] = test system: M. avium clinical isolate Koav 21 (WT)

## C[C@H]1COc2c(N3CCN(C)CC3)c(F)cc3c(=O)c(C(=O)O)cn1c23 [LVX, levofloxacin]
[1]
  MIC: 4 µg/mL (≈ 11.1 µM)
[2]
  MIC: 2 µg/mL (≈ 5.53 µM)
[3]
  MIC: <0.5 µg/mL
[4]
  MIC: 4 µg/mL (≈ 11.1 µM)
[5]
  MIC: 128 µg/mL (≈ 354 µM)
[6]
  MIC: <0.5 µg/mL
[7]
  MIC: 8 µg/mL (≈ 22.1 µM)
[8]
  MIC: 64 µg/mL (≈ 177 µM)
[9]
  MIC: 2 µg/mL (≈ 5.53 µM)
[10]
  MIC: 64 µg/mL (≈ 177 µM)
[11]
  MIC: 4 µg/mL (≈ 11.1 µM)
